Each structure is given as a SMILES string. Counter-ions that a name gives are not always drawn.

The test has as its target T1, human neutrophil elastase (Homo sapiens, UniProt P08246).
T1 construct: purchased Elastin Products Company
T1 sequence (P08246 30-267): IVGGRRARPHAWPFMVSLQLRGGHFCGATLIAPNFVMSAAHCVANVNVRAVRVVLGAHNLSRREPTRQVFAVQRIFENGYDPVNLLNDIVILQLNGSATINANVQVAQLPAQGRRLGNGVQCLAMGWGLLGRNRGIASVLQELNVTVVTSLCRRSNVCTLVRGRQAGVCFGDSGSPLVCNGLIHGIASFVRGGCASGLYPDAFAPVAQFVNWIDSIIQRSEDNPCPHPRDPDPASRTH
Put plainly: Inhibitory action against human neutrophil elastase (Test Example 1; fluorogenic substrate MeOSuc-AAPV-AMC, buffer with 2M NaCl, 0.002% Brij-35). To be noted: 37° C., read-out: IC50 value (compound concentration required for 50% inhibition of human neutrophil elastase). It counts as biochemical. The procedure:
Assay buffer (0.4 unit/ml HNE (human neutrophil elastase, available from Elastin Products Company), 200 mM HEPES [N-(2-hydroxyethyl)piperazine-N′-(2-ethanesulfonic acid)], pH 7.5, 2M NaCl, 0.002% Brij-35) 100 μl, water for injection 40 μl and DMSO (dimethyl sulfoxide) solution of the present compound 20 μl were mixed in a 96 well plate and the mixed solutions were pre-incubated at 37° C. for five minutes. After pre-incubation, MeOSuc-AAPV-AMC (methoxysuccinyl-alanyl-alanyl-prolyl-valyl-aminomethyl cumaride (available from Sigma Aldrich Co.) solution as fluorogenic substrate (which was dissolved in 10% DMSO solution so as to adjust to 0.5 mM) 40 μl was added to the above-prepared mixed solution so as to initiate the reaction, and the mixture was incubated at 37° C. for five minutes. The fluorescence intensity of AMC was measured at an excitation wavelength of 380 nm and a fluorescence wavelength of 460 nm and the inhibition ratio was determined.
On to `COc1ccc(-n2nccc2-c2c(C)n(-c3cccc(C(F)(F)F)c3)c(=O)n(C)c2=O)cc1` [Example 40, 5-(1-(4-methoxyphenyl)-1H-pyrazol-5-yl)-3,6-dimethyl-1-(3-(trifluoromethyl)phenyl)pyrimidin-2,4(1H,3H)-dione], for which the IC50 worked out at 8340 nM.
Then `CCCn1c(=O)c(-c2ccnn2-c2ccc(C#N)cc2)c(N)n(-c2cccc([N+](=O)[O-])c2)c1=O` [Example 57, 4-[5-[6-Amino-1-(3-nitrophenyl)-2,4-dioxo-3-propyl-1,2,3,4-tetrahydropyrimidin-5-yl]-1H-pyrazol-1-yl]benzonitrile], with 159 nM.
Then `Cn1c(=O)c(-c2ccnn2-c2ccc(C#N)cc2)c(N)n(-c2cccc(C(F)(F)F)c2)c1=O` [Example 58, 4-[5-[6-Amino-3-methyl-2,4-dioxo-1-(3-trifluoromethylphenyl)-1,2,3,4-tetrahydropyrimidin-5-yl]-1H-pyrazol-1-yl]benzonitrile], with 552 nM; and `Cc1c(-c2cccnc2-c2ccc(C#N)cc2)c(=O)n(C)c(=O)n1-c1cccc(C(F)(F)F)c1` [Example 61, 4-[3-[3,6-dimethyl-2,4-dioxo-1-(3-trifluoromethylphenyl)-1,2,3,4-tetrahydropyrimidin-5-yl]-pyridin-2-yl]benzonitrile], with 74 nM; and `CCCn1c(=O)c(-n2cnnc2-c2ccc(C#N)cc2)c(C)n(-c2cccc(C(F)(F)F)c2)c1=O` [Example 62, 4-[4-[6-Methyl-2,4-dioxo-3-propyl-1-(3-trifluoromethylphenyl)-1,2,3,4-tetrahydropyrimidin-5-yl]-4H-1,2,4-triazol-3-yl]benzonitrile], with 68 nM.
For the compound `Cc1c(-c2ccnn2-c2ccc(C#N)cc2)c(=O)n(CC=O)c(=O)n1-c1cccc(C(F)(F)F)c1` [Example 68], the IC50 came out at 111 nM.
Then `Cc1c(-c2ccnn2-c2ccc(C#N)cc2)c(=O)n(CCN(C)C)c(=O)n1-c1cccc(C(F)(F)F)c1` [Example 69, 4-[5-[3-(2-Dimethylaminoethyl)-6-methyl-2,4-dioxo-1-(3-trifluoromethylphenyl)-1,2,3,4-tetrahydropyrimidin-5-yl]-1H-pyrazol-1-yl]benzonitrile], with 114 nM; and `CNCCn1c(=O)c(-c2ccnn2-c2ccc(C#N)cc2)c(C)n(-c2cccc(C(F)(F)F)c2)c1=O` [Example 70, 4-[5-[6-Methyl-3-(2-methylaminoethyl)-2,4-dioxo-1-(3-trifluoromethylphenyl)-1,2,3,4-tetrahydropyrimidin-5-yl]-1H-pyrazol-1-yl]benzonitrile], with 43 nM.
Then `CC(=O)NCCn1c(=O)c(-c2ccnn2-c2ccc(C#N)cc2)c(C)n(-c2cccc(C(F)(F)F)c2)c1=O` [Example 71, N-[2-[5-[1-(4-Cyanophenyl)-1H-pyrazol-5-yl]-4-methyl-2,6-dioxo-3-(3-trifluoromethylphenyl)-2,3-dihydropyrimidin-1(6H)-yl]ethyl]acetamide], with 169 nM; and `Cc1c(-c2ccnn2-c2ccc(C#N)cc2)c(=O)n(CC(=O)O)c(=O)n1-c1cccc(C(F)(F)F)c1` [Example 72, 2-[5-[1-(4-Cyanophenyl)-1H-pyrazole-5-yl]-4-methyl-2,6-dioxo-3-(3-trifluoromethylphenyl)-2,3-dihydropyrimidin-1(6H)-yl]acetic acid], with 138 nM.
As to `Cc1c(-c2ccnn2-c2ccc(C#N)cc2)c(=O)n(CCC(=O)O)c(=O)n1-c1cccc(C(F)(F)F)c1` [Example 73, 3-[5-[1-(4-Cyanophenyl)-1H-pyrazol-5-yl]-4-methyl-2,6-dioxo-3-(3-trifluoromethylphenyl)-2,3-dihydropyrimidin-1(6H)-yl]propanoic acid], the IC50 came to 535 nM.
The result for `Cc1c(-c2ccnn2-c2ccc(C#N)cc2)c(=O)n(CCCC(=O)O)c(=O)n1-c1cccc(C(F)(F)F)c1` [Example 74, 4-[5-[1-(4-Cyanophenyl)-1H-pyrazol-5-yl]-4-methyl-2,6-dioxo-3-(3-trifluoromethylphenyl)-2,3-dihydropyrimidin-1(6H)-yl]butanoic acid] reads 312 nM.
The result for `Cc1c(-c2ccnn2-c2ccc(C#N)cc2)c(=O)n(CCC(=O)N(C)C)c(=O)n1-c1cccc(C(F)(F)F)c1` [Example 75, 3-[5-[1-(4-Cyanophenyl)-1H-pyrazol-5-yl]-4-methyl-2,6-dioxo-3-(3-trifluoromethylphenyl)-2,3-dihydropyrimidin-1(6H)-yl]-N,N-dimethylpropaneamide] reads 656 nM; that for `Cc1c(-c2ccnn2-c2ccc(C#N)cc2)c(=O)n(CC(N)=O)c(=O)n1-c1cccc(C(F)(F)F)c1` [Example 76, 2-[5-[1-(4-cyanophenyl)-1H-pyrazol-5-yl]-4-methyl-2,6-dioxo-3-(3-trifluoromethylphenyl)-2,3-dihydropyrimidin-1(6H)-yl]-acetamide], 232 nM.
Then `CNC(=O)Cn1c(=O)c(-c2ccnn2-c2ccc(C#N)cc2)c(C)n(-c2cccc(C(F)(F)F)c2)c1=O` [Example 77, 2-[5-[1-(4-cyanophenyl)-1H-pyrazol-5-yl]-4-methyl-2,6-dioxo-3-(3-trifluoromethylphenyl)-2,3-dihydropyrimidin-1(6H)-yl]-N-methylacetamide], with 184 nM; and `CNC(=O)CCCn1c(=O)c(-c2ccnn2-c2ccc(C#N)cc2)c(C)n(-c2cccc(C(F)(F)F)c2)c1=O` [Example 80, 4-[5-[1-(4-cyanophenyl)-1H-pyrazol-5-yl]-4-methyl-2,6-dioxo-3-(3-trifluoromethylphenyl)-2,3-dihydropyrimidin-1(6H)-yl]-N-methylbutaneamide], with 1290 nM.
Consider `Cc1c(-c2ccnn2-c2ccc(C#N)cc2)c(=O)n(CCCC(=O)N(C)C)c(=O)n1-c1cccc(C(F)(F)F)c1` [Example 81, 4-[5-[1-(4-cyanophenyl)-1H-pyrazol-5-yl]-4-methyl-2,6-dioxo-3-(3-trifluoromethylphenyl)-2,3-dihydropyrimidin-1(6H)-yl]-N,N-dimethylbutaneamide], for which the IC50 came out at 616 nM.
For the compound `Cc1c(-c2ccnn2-c2ccc(C#N)cc2)c(=O)n(CC(=O)N[C@@H](C)c2ccccc2)c(=O)n1-c1cccc(C(F)(F)F)c1` [Example 82, (S)-2-(5-(1-(4-cyanophenyl)-1H-pyrazole-5-yl)-4-methyl-2,6-dioxo-3-(3-(trifluoromethyl)phenyl)-2,3-dihydropyrimidin-1(6H)-yl)-N-(1-phenylethyl)acetamide], the IC50 is 108 nM.
As for `Cc1c(-c2ccnn2-c2ccc(C#N)cc2)c(=O)n(CCCO)c(=O)n1-c1cccc(C(F)(F)F)c1` [Example 83, 4-[5-[3-(3-Hydroxypropyl)-6-methyl-2,4-dioxo-1-(3-trifluoromethylphenyl)-1,2,3,4-tetrahydropyrimidin-5-yl]-1H-pyrazol-1-yl]benzonitrile], the IC50 was determined as 776 nM.
Turning to `Cc1c(-c2ccnn2-c2ccc(C#N)cc2)c(=O)n(CCCCO)c(=O)n1-c1cccc(C(F)(F)F)c1` [Example 84, 4-[5-[3-(4-hydroxybutyl)-6-methyl-2,4-dioxo-1-(3-trifluoromethylphenyl)-1,2,3,4-tetrahydropyrimidin-5-yl]-1H-pyrazol-1-yl]benzonitrile], the IC50 is 147 nM.
In the case of `Cc1c(-c2ccnn2-c2ccc(C#N)cc2)c(=O)n(CCCCCN)c(=O)n1-c1cccc(C(F)(F)F)c1` [Example 85, 4-[5-[3-(5-Aminopentyl)-6-methyl-2,4-dioxo-1-(3-trifluoromethylphenyl)-1,2,3,4-tetrahydropyrimidin-5-yl]-1H-pyrazol-1-yl]benzonitrile hydrochloride], the IC50 was determined as 4.3 nM.
The result for `CC(=O)NCCCCCn1c(=O)c(-c2ccnn2-c2ccc(C#N)cc2)c(C)n(-c2cccc(C(F)(F)F)c2)c1=O` [Example 86, N-[5-[5-[1-(4-Cyanophenyl)-1H-pyrazol-5-yl]-4-methyl-2,6-dioxo-3-(3-trifluoromethylphenyl)-2,3-dihydropyrimidin-1(6H)-yl]pentyl]acetamide] reads 3.2 nM; that for `Cc1c(-c2ccnn2-c2ccc(C#N)cc2S(C)(=O)=O)c(=O)n(C)c(=O)n1-c1cccc(C(F)(F)F)c1` [Example 102, 4-[5-[3,6-Dimethyl-2,4-dioxo-1-(3-trifluoromethylphenyl)-1,2,3,4-tetrahydropyrimidin-5-yl]-1H-pyrazol-1-yl]-3-(methylsulfonyl)benzonitrile], 150 nM; that for `Cc1c(-c2ccnn2-c2ccc(C#N)cc2)c(=O)n(C)c(=O)n1-c1cccc(C(=O)O)c1` [Example 103, 3-[5-[1-(4-Cyanophenyl)-1H-pyrazol-5-yl]-3,6-dimethyl-2,4-dioxo-3,4-dihydropyrimidin-1(2H)yl]benzoic acid], 12200 nM.
For `Cc1c(-c2ccnn2-c2ccc(C#N)cc2)c(=O)n(C)c(=O)n1-c1cccc(C(N)=O)c1` [Example 104, 3-[5-[1-(4-Cyanophenyl)1H-pyrazol-5-yl]-3,6-dimethyl-2,4-dioxo-3,4-dihydropyrimidin-1(2H)yl]benzamide], the IC50 amounted to 92500 nM.
With `CNC(=O)c1cccc(-n2c(C)c(-c3ccnn3-c3ccc(C#N)cc3)c(=O)n(C)c2=O)c1` [Example 105, 3-[5-[1-(4-cyanophenyl)1H-pyrazol-5-yl]-3,6-dimethyl-2,4-dioxo-3,4-dihydropyrimidin-1(2H)yl]-N-methylbenzamide], the IC50 was found to be 22300 nM.

These data come from patent US9040516B2, “Uracil derivative and use thereof for medical purposes” (SUMITOMO DAINIPPON PHARMA CO., LTD., priority 2011, dated 2015).
